Where two headings read alike, the source gives them in different places. Marks after values point to notes of the source that are not given here.
Tests used:
[1] = ligand 30 µmol kg^-1 ip at 1 h after iv ^238Pu(IV) citrate, kill at 24 h, reported previously, cited from earlier work; for percent of injected ^238Pu at 24 h, excreta: feces and GI contents / percent of injected ^238Pu at 24 h, excreta: urine 0-24 h / percent of injected ^238Pu at 24 h, tissues: kidneys: pooled samples
[2] = Promoting excretion of 238Pu(IV) in mice by injected ligands; type: in vivo; conditions: ligand 30 µmol kg^-1 ip at 1 h after iv ^238Pu(IV) citrate, kill at 24 h
Text: Animal studies were completed using methods detailed in Radiation Protection Dosimetry, in press, P. W. Durbin et al., "In Vivo Chelation of Am(III), Pu(IV), Np(V) and U(VI) in Mice by TREN-(Me-3,2-HOPO)"; Radiation Protection Dosimetry, 17, No. 1, 1989, p. 351, P. W. Durbin et al., "Removal of ^238Pu(IV) from Mice by Polycatechoylate, -Hydroxamate or -Hydroxypyridinonate Ligands"; Radiation Research, 99, 1984, p. 85, P. W. Durbin et al., "Specific Sequestering Agents for the Actinides ..."; Radiation Research, 99, 1984, p. 106, P. W. Durbin et al., "Removal of Pu and Am from Beagles and Mice ..."; Radiation Research, 81, 1980, p. 170, R. D. Lloyd et al., and P. W. Durbin et al., "Specific Sequestering Agents for the Actinides ...". The foregoing articles are hereby incorporated by reference.
Radionuclides used in the animal studies came from a variety of sources. However, they can be purchased commercially. The ^238Pu(IV) citrate and ^241Am(III) citrate solutions were prepared for animal injection by 8- to 10-fold dilution with 0.14M NaCl (pH 4) of concentrated stock solutions (0.08M sodium citrate buffer) that had been held in frozen storage at Lawrence Berkeley Laboratory (hereinafter LBL) for several years. [The ^238Pu(IV) was originally obtained from D. R. Atherton at the University of Utah Radiobiology Laboratory, Salt Lake City. The ^241Am(III) solution had been obtained many years earlier from the LBL Actinide Chemistry group.]
The novel chelating agents of the present invention and comparative compounds were tested for their effectiveness in promoting excretion ^238Pu(IV) in nice by injected ligands as follows. Mice, in groups of five, each received an intravenous injection of 1850 Bq ^238Pu(IV) in 0.2 mL of citrate buffer. One hour later, 30 µmol/kg of ligand was injected intraperitoneally in 0.5 mL of saline. The mice were killed 24 hours after the Pu injection, frozen, and dissected after partial thawing. The ^238Pu in skeleton, soft tissues, and separated excreta was determined by counting the ^234U L x-rays. Results of removal of ^238Pu(IV) from mice by injected ligands are summarized in Table 3, which also includes data for CaNa3-DTPA and other reference ligands and the Pu-injected controls. […] While the case of multidente 1,2-HOPO and catechoylamide chelating agents, octadentates are always better chelating agents than the corresponding hexadentates and tetradentates.

[3] = In vivo acute toxicity test of injected ligands in mice
Experimental: The test of acute toxicity of novel and comparative ligands was carried out as follows. Groups of five mice were each given a single i.p. injection of […] of ligand and a day for 10 days or given two i.p. injections of […] in 8 hours. The ligand was dissolved in 0.5 to 1.0 ml of saline at pH 7 to 8. After a period of observation, the mice were killed; selected tissues were removed and fixed for histopathological examination; and unusual findings at autopsy were recorded. […]

[4] = protocol I, 100 µmol kg^-1 x 10 daily i.p., study length 11 d
[5] = protocol I, 100 µmol kg^-1 x 10 daily i.p., study length 21 d
[6] = protocol II, 500 µmol kg^-1 x 2 in 8 h, study length 8 d

| Compound | percent of injected ^238Pu at 24 h, excreta: feces and GI contents [1] | percent of injected ^238Pu at 24 h, excreta: urine 0-24 h [1] | percent of injected ^238Pu at 24 h, tissues: kidneys [1] | percent of injected ^238Pu ± SD at 24 h, tissues: liver [1] | percent of injected ^238Pu ± SD at 24 h, tissues: skeleton [1] | percent of injected ^238Pu ± SD at 24 h, tissues: soft tissue [1] | percent of injected ^238Pu ± SD at 24 h, whole body [1] | also measured |
| --- | --- | --- | --- | --- | --- | --- | --- | --- |
| CC(=O)N(O)CCCCCNC(=O)CCC(=O)N(O)CCCCCNC(=O)CCC(=O)N(O)CCCCCN [DFO, desferrioxamine B] | 15.1% of injected ^238Pu | 38% of injected ^238Pu | 1.8% of injected ^238Pu | 19 ± 13% of injected ^238Pu | 20 ± 11% of injected ^238Pu | 4.5 ± 1.4% of injected ^238Pu | 45 ± 2.5% of injected ^238Pu |  |
| CC(=O)N(O)CCCCCNC(=O)CCC(=O)N(O)CCCCCNC(=O)CCC(=O)N(O)CCCCCNC(=O)c1cccc(=O)n1O [DFO-(1,2-HOPO)] | 46.7% of injected ^238Pu | 9.5% of injected ^238Pu |  | 5.1 ± 2.2^d percent of injected ^238Pu | 6.0 ± 0.5^d percent of injected ^238Pu | 2.3 ± 0.5^d percent of injected ^238Pu | 13 ± 2.9^d percent of injected ^238Pu |  |
| CC(=O)N(O)CCCCCNC(=O)CCC(=O)N(O)CCCCCNC(=O)CCC(=O)N(O)CCCCCNC(=O)c1ccn(C)c(=O)c1O [DFO-Me-3,2-HOPO] | 26.4% of injected ^238Pu | 21% of injected ^238Pu | 3.0% of injected ^238Pu | 13 ± 3.5% of injected ^238Pu | 17 ± 2.4% of injected ^238Pu | 19 ± 3.0% of injected ^238Pu | 53 ± 3.4% of injected ^238Pu |  |
| Cn1ccc(C(=O)NCCN(CCNC(=O)c2ccn(C)c(=O)c2O)CCN(CCNC(=O)c2ccn(C)c(=O)c2O)CCNC(=O)c2ccn(C)c(=O)c2O)c(O)c1=O [H(2,2)-Me-3,2-HOPO, N,N,N',N'-tetrakis[(3-hydroxyl-1-methyl-2-oxo-1,2-dihydropyridin-4-yl)carboxamido-ethyl]-ethylenediamine] |  |  |  |  |  |  |  | percent of injected ^238Pu ± SD at 24 h, tissues: liver [2]: 3.8 ± 1.1^d percent of injected ^238Pu; percent of injected ^238Pu ± SD at 24 h, tissues: skeleton [2]: 11 ± 1.7% of injected ^238Pu; percent of injected ^238Pu ± SD at 24 h, tissues: soft tissue [2]: 2.8 ± 1.6% of injected ^238Pu; percent of injected ^238Pu ± SD at 24 h, whole body [2]: 19 ± 2.9^d percent of injected ^238Pu; percent of injected ^238Pu at 24 h, excreta: feces and GI contents ([2]; pooled samples): 45.3% of injected ^238Pu; percent of injected ^238Pu at 24 h, excreta: urine 0-24 h ([2]; pooled samples): 36% of injected ^238Pu; percent of injected ^238Pu at 24 h, tissues: kidneys ([2]; pooled samples): 1.3% of injected ^238Pu; no. of survivors [3, 4]: 5; percent control mean + SD: body weight [3, 4]: 92 ± 6 percent control; percent control mean + SD: plasma urea N [3, 4]: 223 ± 28 percent control; no. of survivors [3, 5]: 5; percent control mean + SD: body weight [3, 5]: 87 ± 9 percent control; percent control mean + SD: plasma urea N [3, 5]: 225 ± 188 percent control; no. of survivors [3, 6]: 3; percent control mean + SD: body weight [3, 6]: 94 ± 6 percent control; percent control mean + SD: plasma urea N [3, 6]: 169 ± 10 percent control |

Source: EP0840727B1, “3-HYDROXY-2(1H)-[…] AGENTS” (priority 1995, dated 1997)
